US20020142436A1, “Human adenylate cyclase and use therefor” (priority 1995, published 2002)
Entries after “also recorded” stand apart in the source; their conditions may differ. Read-outs that look alike come from different tables or passages of the source.

How the values were obtained:
AtT20 cells [1] = assay: CRF-induced cAMP accumulation in AtT20 cells; assay type: cell-based, mouse
Procedure: Experiments for cAMP were all carried out in Hanks balanced salt solution containing 2 mM CaCl2 and 1 mM MgSO4 buffered with 25 mM HEPES pH 7.4 and supplemented with 0.25% (w/v) of bovine serum albumin. The cells were preincubated in serum free medium for 1 hour, after which blockers of phosphosdiesterase (isobutylmethylxanthine 0.5 mM (IBMX) and/or rolipram 0.1 mM) along with various other treatments were applied for 30 minutes at 37° C. Subsequently the cells were cooled to 22° C. for 5 minutes in a water bath and agonists were added for 10 minutes. The reaction was stopped by the addition of 0.2 mol/l HCl to achieve a final concentration of 0.1 mol/l (Brooker et al, (1979) Adv. in Cyclic Nucl. Res. Vol. 10, G. Brooker, P. Greengard and G. A. Robinson, Raven Press, New York, 2-34).
In some experiments cells were preincubated for 30 minutes in medium containing 2 mmol/l EGTA and no added Ca^2+, supplemented with 5 μmol/l A23187 and 2.5 μmol/l nifedipine in order to deplete rapidly mobilized cellular stores of Ca^2+. […] The rationale for this pretreatment is that calcineurin reportedly influences L-channel activity (Lai et al, (1993) J. Neurochem. 61:1333-1339; and Armstrong et al, (1987) Proc. Natl. Acad. Sci. U.S.A. 84:2518-2522), whereas the treatment regimen used here would make Ca^2+ entry independent of this regulation.
These compounds were made up in ethanol at 10^−3 mol/l and diluted with the incubation medium to the desired final concentrations. In some cases cells were preincubated with L685,818 the structural analogue of FK506 that binds to FKBP-12 and inhibits prolyl-isomerase activity but is devoid of immunosuppressant activity (Dumont et al, (1992) J. Exp. Med. 176:751-760) for 10 minutes before the addition of FK506 for 30 minutes at 37° C.

calcineurin [2] = assay: calcineurin activity in AtT20 cells (phosphocasein method); assay type: biochemical, mouse; settings: 1 μmol/l FK506, phosphocasein
AtT20 cells [3] = assay: ACTH release by AtT20 cells; assay type: cell-based, mouse
HEK293 cells = assay: CRF-induced and unstimulated cAMP in HEK293 cells without AC (wild type, sham or pcDNA3 vector); assay type: cell-based, human; settings: FK506 2 μmol/l, L-685,818 100 μmol/l
Procedure: Both expression plasmids (10 μg) were transfected into SV40-transformed monkey embryonic kidney (COS-7) cells grown in DMEM and 10% fetal bovine serum to 70% confluency in 75 cm^2 flasks following the double DEAE-dextran transfection protocol (Ishikawa et al, (1992) Nucl. Acids Res. 20:4367), while only AC cDNA was transfected into adenovirus-transformed human embryonic kidney (HEK293) cells as these express endogenous receptors for CRF (F. A. Antoni, unpublished data). In control transfections pcDNA3 vector DNA replaced the AC expression construct. […]

[4] = tested on: HEK293 cells transfected with AC; assay: cAMP in HEK293 cells transiently transfected with AC; assay type: cell-based, human; settings: L-685,818 100 μmol/l
[5] = tested on: HEK293 cells stably expressing AC; assay: cAMP production in HEK293 cell lines stably expressing AC; assay type: cell-based, human
Procedure: In particular cell lines derived from the human embryonic kidney cell line 293 (HEK293) have been generated and stably express AC. Briefly, the cells were transfected with pcDNA3 containing the full length AC DNA (clone JP 173—see Example 3) and cells were selected on the basis of resistance to G418 antibiotic (0.8 mg/ml) for 4 weeks. Individual clones of resistant cells were expanded and tested for cAMP production in response to CRF and the effects of immunosuppressants were also examined.

[6] = tested on: HEK293 cells overexpressing human AC9; assay: Ca2+/calcineurin inhibition of cAMP production in HEK293 cells overexpressing human AC9; assay type: cell-based
Procedure: The complete coding sequence of human AC9 was cloned into the expression vector pcDNA3. This constuct and pcDNA3 (10 μg) were each linearised by PvuI digestion prior to electroporation into HEK293 cells. Stably transfected clones were selected for resistance to G418 (Gibco) at […] in Dulbecco's modified Eagle's medium (DMEM) supplemented with 10% foetal calf serum. A total of 12 clones were expanded and over-expression of human AC9 confirmed in 9 cell lines by immunoblotting using antisera raised against a pentadecapeptide derived from the N-terminus of mouse AC9 (Paterson et al, (1995) Biochem. Biophys. Res. Commun. 214:1000-8). […] Analysis of clone 7 is reported here.
HEK-293 cells display complex intracellular Ca2+ handling mechanisms that may be controlled by cAMP and calcineurin (Lin et al, (1995) Mol. Pharmacol. 47:131-9; Gromada et al, (1995) FEBS Letts. 373:182-6; Querfurth et al, (1998) Biochem J. 334:79-86), and thus complicate the interpretation of the data. Therefore, intracellular stores of Ca^2+ were depleted to reduce the contribution of intracellular Ca^2+ pools to the intracellular free Ca^2+ signal. […] Two different Ca^2+ depletion protocols were used (Antoni et al, (1998) supra). […] The total cAMP content of the cells and the medium was determined after freeze-thawing and acetylation by radioimmunoassay (Antoni et al, (1995) J. Biol. Chem. 270:28055-61).

FKBP-12 = FKBP-12 (Homo sapiens, UniProt P62942); settings: cited from earlier work
calcineurin [7] = settings: cited from earlier work

Sequence of FKBP-12 (P62942 whole entry, species assumed): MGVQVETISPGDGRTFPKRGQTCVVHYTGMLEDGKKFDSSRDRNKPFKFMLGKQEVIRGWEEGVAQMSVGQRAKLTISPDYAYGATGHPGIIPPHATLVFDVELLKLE

CC[C@@H]1/C=C(\C)[C@@H](O)[C@H](C)C[C@H](OC)[C@H]2O[C@@](O)(C(=O)C(=O)N3CCCC[C@H]3C(=O)O[C@H](/C(C)=C/[C@@H]3CC[C@@H](O)[C@H](OC)C3)[C@H](C)[C@@H](O)CC1=O)[C@H](C)C[C@@H]2OC [L685,818]
cAMP formation, compound given alone (AtT20 cells [1]): no discernible effect | antagonism of the effect of FK506 on CRF-induced cAMP production (AtT20 cells [1]; 10 nmol/l CRF): antagonized | effect on the inhibition of calcineurin activity by FK506 (calcineurin [2]): blocked the inhibitory effect of FK506 on calcineurin-mediated dephosphorylation of phosphocasein | ACTH secretion, compound given alone (AtT20 cells [3]): no discernible effect; also recorded: no effect on basal ACTH secretion | antagonism of the effect of FK506 on CRF-induced ACTH release (AtT20 cells [3]; FK506 0.5 μmol/l): prevented | cAMP levels in sham-transfected or pcDNA3-transfected cells (HEK293 cells): no effect in sham-transfected or pcDNA3-transfected cells | cAMP response to CRF ([4]; FK506 2 μmol/l): no significant effect on CRF-induced cAMP production; also recorded: no effect on CRF-induced cAMP formation when given alone | blockade of the enhancement of the CRF-induced cAMP response by FK506 ([4]; 1 nmol/l CRF): blocked the enhancement of the response to 1 nmol/l CRF by FK506 | blockade of the FK506 effect on CRF-induced cAMP production [5]: blocked | cAMP production in hAC9 expressing cells [6]: had no effect on cAMP production | inhibitory effect of Ca2+ on cAMP production ([6]; FK506, cyclosporin A, rapamycin 10 μM, L685,818 50 μM, PDE blockers present): failed to block the inhibitory action of Ca^2+ on cAMP production | FKBP-12 prolyl isomerase activity (FKBP-12): potent inhibitor | blockade of calcineurin (calcineurin [7]): does not block calcineurin | blockade of calcineurin (calcineurin [7]; listed as L-685,818): do not inhibit calcineurin
